PMC11678797, “A Repurposed Drug Selection Pipeline to Identify CNS-Penetrant Drug Candidates for Glioblastoma” (Pharmaceuticals, 2024)
pIC50: −log10 of the molar value.

Assays:
[1] = tested on: GBM8 glioblastoma patient-derived cell culture; experiment: In vitro drug screening, cell viability by CellTiter GLO 2.0 after 5 days; type: cell-based; settings: Homo sapiens, 120 h, 5 days incubation
Protocol: (§1) Glioblastoma stem-like cell cultures (GSC) were derived from primary brain tumor samples received directly from the operating room. Tumor classification was performed by the local neuropathologist according to guidelines of the WHO 2007 and 2016 classification of primary brain tumors. The use of patient tissue for this study was approved by the local ethics committee and all patients signed informed consent forms according to the guidelines of the Institutional Review Board. Samples were processed as described previously. The GBM8 cell line was kindly provided by dr. Hiroaki Wakimoto (Massachusetts General Hospital, Boston, MA, USA). All cell cultures were grown in Dulbecco’s modified Eagle’s medium (DMEM)–F12 with 1% penicillin/streptomycin, B27 (Invitrogen), human epidermal growth factor (EGF; 5 μg/mL), human basic fibroblast growth factor (FGF; 5 μg/mL) (both from Tebu-Bio) and heparin ([…]; Sigma-Aldrich, St. Louis, MI, USA).
(§2) Glioma stem-like cell cultures were cultured under serum free conditions according to Verheul et al.. Cells were seeded in 96-well plates (Greiner bio-one, Kremsmünster, Austria) coated with extracellular matrix (BD Bioscience, Becton Drive Franklin Lakes, NJ, USA) at 1000 cells/well. A stock solution of OMA was diluted in a serum-free cell culture medium to obtain a starting concentration of 8 μM in 0.1% DMSO. Serial dilutions of OMA and DMSO were added to the wells 24 h later for an incubation period of 5 days. Cell viability was measured by the CellTiter GLO 2.0 and dose–response curves and IC50 values were calculated using GraphPad Prism version 9. All experiments were performed in 3 biological replicates.
(§3) GraphPad Prism software version 9.5 (GraphPad Software) was used for calculating IC50 values using nonlinear regression (curve-fit). GraphPad Prism was used to determine whether there was a statistically significant difference in OMA concentration and the B/P ratio between the L and R hemispheres of mice bearing GS832, GS607 and GBM8 tumors, using an unpaired t-test. […]

[2] = tested on: GS607 glioblastoma patient-derived cell culture; experiment: as above; type: cell-based; settings: Homo sapiens, 120 h, 5 days incubation
Protocol: as §1, §2, §3

[3] = tested on: GS832 glioblastoma patient-derived cell culture; experiment: as above; type: cell-based; settings: Homo sapiens, 120 h, 5 days incubation
Protocol: as §1, §2, §3

murine P-gp (Abcb1a) = target: T1, murine P-gp (Abcb1a) (Mus musculus, UniProt P21447); experiment: Concentration equilibrium transport assay (CETA), LLC-PK1 cells transduced with murine Abcb1a; type: in vitro ADME; settings: omacetaxine 100 nM, up to 4 h
T1 construct: expressed in transfected cells; host or cells: LLC-PK1 (pig kidney) cells transduced with murine Abcb1a (LLC-Mdr1a)
T1 sequence (P21447 whole entry): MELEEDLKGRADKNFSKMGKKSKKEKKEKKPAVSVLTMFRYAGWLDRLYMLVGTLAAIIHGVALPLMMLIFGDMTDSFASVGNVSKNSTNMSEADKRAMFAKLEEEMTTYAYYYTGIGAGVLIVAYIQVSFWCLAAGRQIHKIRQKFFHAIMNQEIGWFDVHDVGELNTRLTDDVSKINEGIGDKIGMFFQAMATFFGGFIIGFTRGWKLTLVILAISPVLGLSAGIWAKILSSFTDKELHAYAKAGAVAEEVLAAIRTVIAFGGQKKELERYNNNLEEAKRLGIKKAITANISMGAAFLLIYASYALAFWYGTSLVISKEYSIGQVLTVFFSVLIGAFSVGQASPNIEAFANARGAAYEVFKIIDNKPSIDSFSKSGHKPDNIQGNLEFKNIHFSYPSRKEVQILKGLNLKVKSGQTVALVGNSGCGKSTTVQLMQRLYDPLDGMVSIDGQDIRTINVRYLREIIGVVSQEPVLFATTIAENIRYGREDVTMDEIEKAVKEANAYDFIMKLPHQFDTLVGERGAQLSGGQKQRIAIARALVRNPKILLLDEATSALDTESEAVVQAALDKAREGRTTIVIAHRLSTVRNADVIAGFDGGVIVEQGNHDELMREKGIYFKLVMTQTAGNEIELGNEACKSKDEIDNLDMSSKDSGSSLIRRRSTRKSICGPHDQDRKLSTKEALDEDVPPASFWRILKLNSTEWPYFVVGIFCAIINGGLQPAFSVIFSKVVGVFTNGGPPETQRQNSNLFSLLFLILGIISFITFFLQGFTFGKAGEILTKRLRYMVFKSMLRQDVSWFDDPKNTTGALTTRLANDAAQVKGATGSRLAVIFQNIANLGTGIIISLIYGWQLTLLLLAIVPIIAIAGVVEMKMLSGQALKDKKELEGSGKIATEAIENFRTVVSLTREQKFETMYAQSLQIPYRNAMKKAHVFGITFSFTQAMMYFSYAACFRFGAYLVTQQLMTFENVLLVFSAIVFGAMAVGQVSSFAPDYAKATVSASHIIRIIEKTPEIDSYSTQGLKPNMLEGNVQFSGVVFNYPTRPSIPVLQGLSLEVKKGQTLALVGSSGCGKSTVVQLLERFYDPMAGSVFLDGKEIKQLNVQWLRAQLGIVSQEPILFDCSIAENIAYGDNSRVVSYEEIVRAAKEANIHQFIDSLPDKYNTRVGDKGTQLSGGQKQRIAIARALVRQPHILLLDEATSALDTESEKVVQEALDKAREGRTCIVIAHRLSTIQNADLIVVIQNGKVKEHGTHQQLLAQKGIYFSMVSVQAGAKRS
Protocol: (§4) In vitro transport studies were performed using the LLC pig kidney cell line (LLC-PK1) and sub-lines transduced with murine Abcb1a (LLC-Mdr1a) or human ABCB1 (LLC-MDR1). Similarly, in vitro transport studies were conducted in the parental Madin–Darby canine kidney (MDCK) type II cell line (MDCK-Parent) and murine Abcg2 (MDCK-Bcrp1) or human ABCG2 (MDCK-BCRP) transduced sublines. Concentration equilibrium transport assays (CETA) were performed as previously described. Briefly, cells were grown on polycarbonate membrane filters (3.0 µm pores, 24 mm diameter; Costar Corning, NY, USA) for 4 days. Next, 2 mL of MEM medium containing 10% FCS and omacetaxine (100 nM) was added to both the apical and basal compartments. Then, [14C]-inulin ([…]) was added basolateral to check the membrane integrity. Zosuquidar 1 μM was added to all wells containing MDCK cells to inhibit endogenous (canine) ABCB1. […] The integrity of the membrane was checked by taking 20 μL samples from both apical and basolateral sides for radioactivity counting. […] OMA concentrations were measured using an LC-MS/MS system that consisted of an UltiMate 3000 LC System (Dionex, Sunnyvale, CA, USA) and an API 4000 mass spectrometer (Sciex, Framingham, MA, USA).

human BCRP (ABCG2) = target: T2, human BCRP (ABCG2) (Homo sapiens, UniProt Q9UNQ0); experiment: Concentration equilibrium transport assay (CETA), MDCK cells transduced with human ABCG2, with zosuquidar; type: in vitro ADME; settings: omacetaxine 100 nM, zosuquidar 1 μM, up to 4 h
T2 construct: expressed in transfected cells; host or cells: MDCK type II (canine kidney) cells transduced with human ABCG2 (MDCK-BCRP)
T2 sequence (Q9UNQ0 1-655): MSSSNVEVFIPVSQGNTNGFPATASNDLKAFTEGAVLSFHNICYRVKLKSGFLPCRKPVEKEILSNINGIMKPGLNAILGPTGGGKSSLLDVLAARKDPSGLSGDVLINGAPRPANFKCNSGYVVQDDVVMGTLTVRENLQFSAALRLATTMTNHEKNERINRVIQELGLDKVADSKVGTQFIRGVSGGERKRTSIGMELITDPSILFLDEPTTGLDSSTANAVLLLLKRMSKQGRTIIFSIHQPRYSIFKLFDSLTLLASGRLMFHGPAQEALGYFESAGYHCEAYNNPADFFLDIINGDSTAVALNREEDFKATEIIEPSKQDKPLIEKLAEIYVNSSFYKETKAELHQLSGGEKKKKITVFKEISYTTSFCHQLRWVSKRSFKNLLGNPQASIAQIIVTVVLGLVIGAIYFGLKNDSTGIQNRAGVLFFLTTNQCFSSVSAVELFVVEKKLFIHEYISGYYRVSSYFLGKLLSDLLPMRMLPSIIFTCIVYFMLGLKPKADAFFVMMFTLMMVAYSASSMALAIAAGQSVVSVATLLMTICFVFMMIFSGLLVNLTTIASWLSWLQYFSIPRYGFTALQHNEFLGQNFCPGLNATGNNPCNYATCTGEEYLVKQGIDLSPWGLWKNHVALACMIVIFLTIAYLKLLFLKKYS
Protocol: as §4

- pIC50 [1]: 8.14
- pIC50 [2]: 7.64
- pIC50 [3]: 8.31
- substrate of P-gp (translocation basolateral to apical) (murine P-gp (Abcb1a)): weak substrate
- substrate of BCRP (translocation between apical and basolateral compartments) (human BCRP (ABCG2)): not a substrate
SMILES: COC(=O)C[C@](O)(CCCC(C)(C)O)C(=O)O[C@@H]1C(OC)=C[C@]23CCCN2CCc2cc4c(cc2[C@H]13)OCO4 [OMA, Omacetaxine mepesuccinate]
